{
  "source": "patent US20040022744A1",
  "about": "“Method of treating dental caries and remineralizing lesions” (priority 2001, published 2004)",
  "key": {"[1]": {"tested_on": "microflora from primary root carious lesions (PRCL)", "assay": "Ozone effect on microflora from primary root caries ex-vivo", "type": "cell-based", "conditions": "for Mean ± SE of Total cfu (Log10): after 10 seconds of ozone treatment", "text": "Primary root carious lesions (PRCL) are a major clinical problem. The aim of this study was to establish if ozone could achieve effective microbial killing in PRCL. An ozone producing generator (Purezone Ltd., Ipswich, U.K.) was used in this ex-vivo study assessing the use of ozone on PRCL. In this study, soft PRCL requiring restoration were used as these are the most severe type of lesion found in humans. 20 freshly extracted teeth with PRCL requiring restoration were used. After plaque removal using a hand held standard fine nylon fiber sterile toothbrush with sterile water as a lubricant to cleanse the surface, each tooth was then isolated using sterile cotton wool rolls and dried using a dry sterile cotton wool roll. […] Each sample was weighed and immediately placed in 1 ml of Fastidious Anaerobe Broth (FAB). To each 1 ml of FAB containing a biopsy o carious or ozone treated carious dentine, sterile glass beads were added. They were vortexed for 30 seconds to facilitate the extraction of any micro-organisms from the carious dentine and disperse any aggregates. After decimal dilution with FAB, […] of these was spread on Fastidious Anaerobe Agar (LabM, Bury, Lancs., U.K.) supplemented with 5% (V/V) horse blood in an anaerobic chamber at 37° C. for four days. The mean±SE number of each colony type was counted and calculated.\nThe procedure of Example 2 was repeated except that ozonized water was applied to the lesion for 20 seconds.\nThe aims of these studies were to evaluate the efficiency of ozone on primary root caries and associated micro-organisms (Streptococcus sobrinus; TH 21 Streptococcus mutans; NCTC 10449). In study 1, 40 soft primary root carious lesions (PRCLs) from freshly extracted teeth were used and randomly divided into two groups to test the exposure to ozone for either 10 or 20 seconds. There was a significant (p<0.001) difference (Mean±SE) between the control samples for either 10 seconds (log10 5.91±0.15) or 20 seconds (log10 6.18±0.21) and ozone treated samples for either 10 seconds (log10 3.57±0.37) or 20 seconds (log10 3.77±0.42). In study 2, 40 sterile saliva coated glass beads were put into bijoux bottles with 3 mls of Todd Hewitt broth for control and test groups. S. sobrinus and S. mutans were inoculated and incubated anaerobically overnight. Each glass bead was washed with 2 mls of PBS. Immediately, 10 seconds of ozone was applied to the glass beads in the test groups. Subsequently, each glass bead in the test and control groups was placed in 3 mls of Todd Hewitt broth with six more sterile glass beads and were vortexed for 30 seconds. […] The number of each colony type was counted and calculated. […]"}, "[2]": {"tested_on": "Streptococcus sobrinus; TH 21", "assay": "Ozone on micro-organisms on saliva coated glass beads", "type": "cell-based", "conditions": "S. sobrinus on saliva coated glass beads, 10 seconds of ozone", "text": "The aims of these studies were to evaluate the efficiency of ozone on primary root caries and associated micro-organisms (Streptococcus sobrinus; TH 21 Streptococcus mutans; NCTC 10449). In study 1, 40 soft primary root carious lesions (PRCLs) from freshly extracted teeth were used and randomly divided into two groups to test the exposure to ozone for either 10 or 20 seconds. There was a significant (p<0.001) difference (Mean±SE) between the control samples for either 10 seconds (log10 5.91±0.15) or 20 seconds (log10 6.18±0.21) and ozone treated samples for either 10 seconds (log10 3.57±0.37) or 20 seconds (log10 3.77±0.42). In study 2, 40 sterile saliva coated glass beads were put into bijoux bottles with 3 mls of Todd Hewitt broth for control and test groups. S. sobrinus and S. mutans were inoculated and incubated anaerobically overnight. Each glass bead was washed with 2 mls of PBS. Immediately, 10 seconds of ozone was applied to the glass beads in the test groups. Subsequently, each glass bead in the test and control groups was placed in 3 mls of Todd Hewitt broth with six more sterile glass beads and were vortexed for 30 seconds. After decimal dilutions, […] were spread on blood agar plates supplemented with 5% (V/V) horse blood and placed in an anaerobic chamber at 37° C. for two days. The number of each colony type was counted and calculated. […]"}},
  "data": [
    {"smiles": "O=[O+][O-]", "note": "[ozone]", "values": [
      {"measurement": "percentage of micro-organisms killed", "setting": "[1]; 10 seconds of ozone, PRCL ex vivo", "value": "more than 99%"},
      {"measurement": "Mean ± SE of Total cfu (Log10)", "setting": "[1]; soft PRCL of extracted teeth", "value": "3.57±0.37", "unit": "Log10"},
      {"measurement": "Mean ± SE of Total cfu (Log10)", "setting": "[1]; soft PRCL of extracted teeth, listed as Ozone", "value": "3.57 ± 0.37", "unit": "Log10"},
      {"measurement": "Total cfu (log10), mean±SE", "setting": "[1]; after 20 seconds of ozone treatment, soft PRCL of extracted teeth", "value": "3.77±0.42", "unit": "log10"},
      {"measurement": "colony count (log10), Mean ±SE", "setting": "[2]", "value": "1.09±0.36", "unit": "log10"}
    ]}
  ]
}
